# Literature values in article PMC11014758 (ACS infectious diseases, 2024).
# Tests used:
# LasR [1] = target: T1, LasR (Pseudomonas aeruginosa, UniProt P25084); conditions: same strain, analogous assay conditions; ref Moore et al. 2015 [15]
# LasR [2] = target: T1, LasR; conditions: same strain, analogous assay conditions; ref Moore et al. 2015 [15]; remark: listed apart in the source
# T1 sequence (P25084 whole entry): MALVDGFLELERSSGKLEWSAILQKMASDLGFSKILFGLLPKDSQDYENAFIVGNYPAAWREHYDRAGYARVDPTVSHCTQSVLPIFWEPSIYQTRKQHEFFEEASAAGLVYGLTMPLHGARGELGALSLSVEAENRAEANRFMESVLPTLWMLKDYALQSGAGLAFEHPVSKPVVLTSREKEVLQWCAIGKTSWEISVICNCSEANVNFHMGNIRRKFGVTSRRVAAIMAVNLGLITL
Compound,Maximum Activation (LasR [1]) [%],IC50 (LasR [2]) [µM],Maximum Inhibition (LasR [2]) [%]
"CCCCCCCCCC(=O)CC(=O)N[C@H]1CCOC1=O [OdDHL, N-(3-oxo)-dodecanoyl L-homoserine lactone]",100,,
CCCCCCCCCNC(=O)CC(=O)c1ccccc1 [V-06–018],,5.2,
chlorolactone [CL],,21,55
